Experimental data taken from ChEMBL document CHEMBL1150006, “Synthesis of new imidazo[1,2-b]pyridazine isosteres of potent imidazo[4,5-b]pyridine angiotensin II antagonists” (Bioorg Med Chem Lett, 1994).

How the values were obtained:
[1] = target: T1, Type-1 angiotensin II receptor (Oryctolagus cuniculus, UniProt P34976); experiment: In vitro binding affinity evaluated by its ability to displace the specific binding ligand 125I-SAR1, Ile8-AII from Angiotensin II receptor, type 1 in rabbit aorta membrane; assay type: cell membranes
T1 sequence (P34976 whole entry): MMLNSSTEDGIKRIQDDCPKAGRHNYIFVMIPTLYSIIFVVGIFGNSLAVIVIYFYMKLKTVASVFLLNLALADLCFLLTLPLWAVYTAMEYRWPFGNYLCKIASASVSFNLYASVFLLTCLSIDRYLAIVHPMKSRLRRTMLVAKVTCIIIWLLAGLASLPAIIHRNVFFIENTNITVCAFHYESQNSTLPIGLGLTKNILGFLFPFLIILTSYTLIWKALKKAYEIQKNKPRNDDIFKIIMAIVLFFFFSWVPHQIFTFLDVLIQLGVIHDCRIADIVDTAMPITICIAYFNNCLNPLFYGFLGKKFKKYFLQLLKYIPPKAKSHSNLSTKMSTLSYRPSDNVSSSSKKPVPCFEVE

[2] = target: T2, Type-2 angiotensin II receptor (Rattus norvegicus, UniProt P35351); experiment: In vitro binding affinity at AT2 receptor determined by its ability to displace the specific binding ligand [125I]-Sar1, Ile8-AII from rat brain membrane
T2 sequence (P35351 whole entry): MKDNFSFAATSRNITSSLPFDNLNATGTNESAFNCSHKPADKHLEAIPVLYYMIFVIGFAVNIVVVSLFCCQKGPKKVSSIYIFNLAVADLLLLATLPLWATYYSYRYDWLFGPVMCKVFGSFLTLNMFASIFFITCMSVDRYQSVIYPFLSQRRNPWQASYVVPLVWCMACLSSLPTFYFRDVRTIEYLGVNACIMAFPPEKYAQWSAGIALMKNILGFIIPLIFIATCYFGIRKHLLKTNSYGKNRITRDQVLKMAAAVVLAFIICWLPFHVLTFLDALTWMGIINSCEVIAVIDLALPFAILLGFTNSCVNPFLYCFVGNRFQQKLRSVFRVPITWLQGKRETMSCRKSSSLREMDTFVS

Rattus norvegicus [3] = experiment: Dose required for more than 90% maximal inhibition of blood pressure response at iv bolus administration in conscious normotensive rats; assay type: functional
Rattus norvegicus [4] = species: Rattus norvegicus; experiment: Percent inhibition exceeded duration of 6 hours; assay type: functional

IC50 [1] [nM] | IC50 [2] [nM] | Compound | Dose (Rattus norvegicus [3]) [mg/kg] | Inhibition (Rattus norvegicus [4]) [%]
1.7 | – | CCc1nc2c(C)cc(C)nn2c1Cc1ccc(-c2ccccc2NS(=O)(=O)C(F)(F)F)cc1 | – | –
0.8 | – | CCc1nc2c(C)cc(C)nn2c1Cc1ccc(-c2ccccc2S(=O)(=O)NC(=O)c2ccccc2)cc1 | – | –
5.7 | > 10 | CCc1nc2c(C)cc(C)nn2c1Cc1ccc(-c2ccccc2-c2nn[nH]n2)cc1 | 1 | >30
83 | – | CCc1nc2c(C)cc(C)nn2c1Cc1ccc(-c2ccccc2C(=O)O)cc1 | – | –
